Patent publication US20250352595A1, “PHARMACEUTICAL, FOOD, OR FEED COMPOSITION FOR PREVENTING OR TREATING MUSCLE LOSS CONTAINING RHODODENDRON MUCRONULATUM EXTRACT” (DR. OREGONIN INC., priority 2022, published 2025)

Tested on: 3T3-L1 cells
Assay: Adipocyte differentiation (fat accumulation) measurement by Oil Red-O staining
Format: cell-based, mouse
Details: for adipocyte differentiation inhibitory activity depending on the treatment concentration: 3T3-L1 cells, Oil Red O staining; for inhibition at 20 µg/mL: Mus musculus, 20 μg/ml, the highest concentration in the experiment, 3T3-L1 differentiation, Oil Red O, read-out: effect of inhibiting adipogenesis
Description: 3T3-L1 cells, a mouse-derived preadipocyte, were purchased from the Korean Cell Line Bank and used. 3T3-L1 cells were cultured in a 37° C.-wet CO2 incubator (5% CO2/95% air) using a cell culture medium (complete DMEM culture medium) in which 10% bovine calf serum (BCF), 100 units/mL penicillin, and 100 μg/mL streptomycin were added to a DMEM medium (Welgene). When the cells were 80% full of the culture dish, the cell monolayer was washed with phosphate buffer saline (PBS, pH 7.4), and then the cells were detached by adding trypsin-2.65 mM EDTA and subcultured, and the medium was exchanged every 2 days.
3T3-L1 cells were seeded onto 24-well plate at a concentration of 1×10^5 cells/well. After the cells reached the confluence state, the cell culture medium was sequentially exchanged with three kinds of differentiation-inducing cultures (DM), and the cells were cultured to induce differentiation into adipocytes. That is, the cell culture medium was exchanged with a differentiation-inducing culture medium in which DMI (1 μM dexamethasone, 0.5 mM 3-isobutyl-1-methylxanthine (IBMX), […]) was added to a DMEM medium containing 10% FBS to stimulate differentiation for 2 days. After 2 days, the cells were exchanged for a new differentiation-inducing culture medium in which 5 μg/mL insulin was added to DMEM medium containing 10% FBS to stimulate differentiation for another 2 days. After stimulating differentiation for a total of 4 days, cells were maintained in DMEM medium containing 10% FBS for 2 days to induce differentiation into adipocytes.
In order to investigate the effect of the test substance on adipocyte differentiation, the test substance was added to the differentiation-inducing culture medium and treated on the cells.
After treatment with the test substance while inducing differentiation of 3T3-L1 cells, the cells were rinsed with DPBS (Welgene), and then the cells were fixed at room temperature for 1 hour by adding 4% paraformaldehyde (PFA, Biosesang). After the cells were fixed, the cells were treated with oil red O (Sigma-Aldrich) solution and stained at room temperature for 1 to 2 hours. After observing the staining degree of adipocytes visually, the cells were rinsed with distilled water and observed for adipocytes through a microscope.

Compound	adipocyte differentiation inhibitory activity depending on the treatment concentration	inhibition at 20 µg/mL [%]
O=C1c2c(O)cc(O)cc2O[C@H](c2ccc(O)c(O)c2)[C@H]1O [Taxifolin-aglycone, taxifolin]	increases in a concentration-dependent manner	≥ 40
O=C1c2c(O)cc(O)cc2O[C@H](c2ccc(O)c(O)c2)[C@H]1OC1OC[C@@H](O)[C@@H](O)[C@@H]1O (stereo partly drawn) [Taxifolin-3-O-arabinopyranoside, taxifolin-3-O-α-L-arabinopyranoside]	increases in a concentration-dependent manner	≥ 40
